Results on 10 molecules are retold here after ChEMBL document CHEMBL5143509, “An efficient strategy for digging protein-protein interactions for rational drug design - A case study with HIF-1α/VHL” (Eur J Med Chem, 2022).

Data set [1] can be described thus: Octanol/water partition coefficient, logD of the compound at pH 7.4. The class given is physicochemical.
Data set [2] addresses Hypoxia-inducible factor 1-alpha (Homo sapiens) (UniProt Q16665). The experiment in a line: Stabilization of HIF-1 alpha in human HeLa cells at 100 uM incubated for 24 hrs by Western blot analysis. In kind it is cell-based. In general terms: In western blotting, separated proteins are transferred to a membrane and probed.
Data set [3] can be described thus: Octanol-water partition coefficient, logP of the compound. The class given is physicochemical.
Data set [4] is described as follows: Binding affinity to VBC (unknown origin) using FAM-DEALA-Hyp-YIPD as substrate by fluorescence polarization assay. Details: species or system Homo sapiens. (In general: Fluorescence polarisation rises when a labelled molecule tumbles more slowly, as on binding a larger partner.)
For a further data set, the system named is 786-0. The experiment in a line: Cytotoxicity against human 786-0 cells assessed as effect on cell viability at 100 uM measured after 24 hrs by MTT assay. In kind it is toxicity, cell-based. To be noted: 786-0, 24 h.
Data set [5] deals with HeLa. Kind of data set: Cytotoxicity against human HeLa cells assessed as effect on cell viability at 100 uM measured after 24 hrs by crystal violet staining based assay. The class given is toxicity.
The test system of data set [6] is U2OS. Kind of data set: Cytotoxicity against human U2OS cells assessed as effect on cell viability at 100 uM measured after 24 hrs by MTT assay. In kind it is toxicity, cell-based.
Data set [7] relates to HeLa. Kind of data set: Stabilization of HIF-1 alpha OH in human HeLa cells at 100 uM incubated for 24 hrs by Western blot analysis. In kind it is cell-based.
Data set [8] deals with U2OS. The experiment in a line: Upregulation of HIF-1 alpha in human U2OS cells at 100 uM incubated for 24 hrs by Western blot analysis. In kind it is functional, cell-based.
Data set [9] deals with HeLa. Kind of data set: Upregulation of HIF-1 alpha in human HeLa cells at 100 uM incubated for 24 hrs by Western blot analysis. The class given is functional, cell-based.

Activity calls are given as the source filed them. No cut-off for these calls is given here.

Chain of Hypoxia-inducible factor 1-alpha (Homo sapiens) (Q16665 whole entry, looked up): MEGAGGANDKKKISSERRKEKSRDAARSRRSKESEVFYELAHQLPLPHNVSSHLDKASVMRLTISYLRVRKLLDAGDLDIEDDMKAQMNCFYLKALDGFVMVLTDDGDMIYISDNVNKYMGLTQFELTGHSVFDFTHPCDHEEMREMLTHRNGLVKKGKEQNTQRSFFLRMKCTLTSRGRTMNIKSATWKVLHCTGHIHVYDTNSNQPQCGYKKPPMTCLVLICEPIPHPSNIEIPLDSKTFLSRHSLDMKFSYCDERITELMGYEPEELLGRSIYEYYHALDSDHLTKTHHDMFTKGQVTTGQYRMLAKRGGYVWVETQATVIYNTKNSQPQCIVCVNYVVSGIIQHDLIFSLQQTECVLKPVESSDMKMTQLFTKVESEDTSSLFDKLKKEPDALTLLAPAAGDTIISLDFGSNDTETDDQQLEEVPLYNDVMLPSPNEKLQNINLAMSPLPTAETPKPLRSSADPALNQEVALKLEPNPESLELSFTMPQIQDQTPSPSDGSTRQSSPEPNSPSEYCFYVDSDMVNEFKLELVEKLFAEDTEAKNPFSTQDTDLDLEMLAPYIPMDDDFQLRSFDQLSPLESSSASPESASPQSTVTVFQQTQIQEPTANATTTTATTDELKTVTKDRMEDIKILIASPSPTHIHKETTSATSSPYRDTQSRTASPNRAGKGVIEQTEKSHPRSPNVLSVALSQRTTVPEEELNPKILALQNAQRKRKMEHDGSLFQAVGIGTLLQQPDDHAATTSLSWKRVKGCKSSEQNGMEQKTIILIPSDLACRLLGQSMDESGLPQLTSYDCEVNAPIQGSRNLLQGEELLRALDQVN

For `CC(=O)N[C@H](C(=O)N1C[C@H](O)C[C@H]1C(=O)N[C@@H](CCc1ccncc1)c1ccc(-c2scnc2C)cc1)C(C)(C)C`, the logD in [1] turned out to be 2.7. The Activity in data set [2] is 0.99 fold; in the data set with 786-0, “Non-Toxic”; in the data set on HeLa [5] it was “Non-Toxic”; in the data set with U2OS [6], “Non-Toxic”; in the data set on HeLa [7], 2.25 fold. The same molecule came in with a log partition coefficient (logP) in data set [3] of 2.18. The IC50 in [4] was found to be 223 nM.

Turning to `CC(=O)N[C@H](C(=O)N1C[C@H](O)C[C@H]1C(=O)NCc1ccc(-c2scnc2C)cc1)C(C)(C)C`, the log distribution coefficient (logD) in data set [1] (read-out: logD) came out at 0.94. Besides, the Activity in data set [2] is 1 fold; in the data set on HeLa [5], “Non-Toxic”; in the data set on HeLa [7], 1 fold. Besides, the logP in data set [3] (read-out: logP) came out at 0.94. In data set [4], the half-maximal inhibitory concentration (IC50) was found to be 204 nM.

In the case of `CC(=O)N[C@H](C(=O)N1C[C@H](O)C[C@H]1C(=O)N[C@@H](CCC(=O)O)c1ccc(-c2scnc2C)cc1)C(C)(C)C`, the logD in data set [1] (read-out: logD) is -0.44. In addition, the Activity in data set [2] was 1.91 fold; with 786-0, “Non-Toxic”; in the data set with HeLa [5], “Non-Toxic”; with U2OS [6] it was “Non-Toxic”; with HeLa [7], 0.99 fold. Moreover, in [3] (read-out: logP), the logP stood at 1.02. In data set [4], this molecule registered an IC50 of 63 nM. Besides, the outcome in the data set with U2OS [8] was Active.

Consider `CCOC(=O)CC[C@H](NC(=O)[C@@H]1C[C@@H](O)CN1C(=O)[C@@H](NC(C)=O)C(C)(C)C)c1ccc(-c2scnc2C)cc1`, for which the pH-dependent lipophilicity (logD) in [1] (read-out: logD) came out at 1.59. For the same molecule, the Activity in data set [2] was 1.64 fold; in the data set on 786-0, “Non-Toxic”; in the data set with HeLa [5] it was “Non-Toxic”; in the data set with U2OS [6] it was “Non-Toxic”; in the data set with HeLa [7] it was 1.31 fold. In addition, the lipophilicity (logP) in [3] (read-out: logP) worked out at 1.59. In addition, the IC50 in data set [4] stood at 81 nM. Moreover, the result with U2OS [8] was Active.

Consider `CC(=O)N[C@H](C(=O)N1C[C@H](O)C[C@H]1C(=O)N[C@@H](CCc1ccc(O)cc1)c1ccc(-c2scnc2C)cc1)C(C)(C)C`, for which, in [1] (read-out: logD), the pH-dependent lipophilicity (logD) stood at 3.08. The Activity was 1.79 fold in data set [2], “Non-Toxic” with 786-0, “Non-Toxic” in the data set on HeLa [5] and 0.75 fold in the data set on HeLa [7]. In addition, the logP in data set [3] (read-out: logP) amounted to 3.08. The molecule also had a half-inhibitory concentration (IC50) in [4] of 193 nM. Moreover, the result in the data set on U2OS [8] was Active.

In the case of `CCCC[C@H](NC(=O)[C@@H]1C[C@@H](O)CN1C(=O)[C@@H](NC(C)=O)C(C)(C)C)c1ccc(-c2scnc2C)cc1`, in data set [1] (read-out: logD), the logD turned out to be 2.75. Also, the Activity in data set [2] is 1.4 fold; in the data set with 786-0 it was “Non-Toxic”; in the data set on HeLa [5], “Non-Toxic”; with U2OS [6], “Non-Toxic”; with HeLa [7], 1.4 fold. Moreover, the logP in data set [3] (read-out: logP) was found to be 2.75. In [4], this molecule showed an IC50 of 350 nM.

On to `CC(=O)N[C@H](C(=O)N1C[C@H](O)C[C@H]1C(=O)N[C@@H](CCc1ccc(Br)cc1)c1ccc(-c2scnc2C)cc1)C(C)(C)C`, for which, in [1] (read-out: logD), the logD worked out at 4.08. The Activity in data set [2] is 1.88 fold; in the data set on 786-0, “Non-Toxic”; in the data set with HeLa [5], “Non-Toxic”; in the data set on HeLa [7] it was 0.91 fold. In addition, the logP in [3] (read-out: logP) was determined as 4.08. In data set [4], this molecule displayed an IC50 of 189 nM. Also, in the data set with U2OS [8], the result was Active.

Take `CC(=O)N[C@H](C(=O)N1C[C@H](O)C[C@H]1C(=O)N[C@@H](c1ccccc1)c1ccc(-c2scnc2C)cc1)C(C)(C)C`: the log distribution coefficient (logD) in data set [1] (read-out: logD) came out at 2.55. The Activity in data set [2] is 2.21 fold; with 786-0 it was “Non-Toxic”; in the data set on HeLa [5] it was “Non-Toxic”; in the data set on HeLa [7], 1.01 fold. Further, the logP in data set [3] (read-out: logP) turned out to be 2.55. The IC50 in data set [4] is 230 nM.

Consider `O=C(O)CNC(=O)c1c(O)c2ccccc2n(Cc2ccccc2)c1=O`, for which the outcome with HeLa [9] and in the data set on U2OS [8] was Active.

`CC(=O)N[C@H](C(=O)N1C[C@H](O)C[C@H]1C(=O)N[C@@H](CCC(C)(C)C)c1ccc(-c2scnc2C)cc1)C(C)(C)C`: the logD in data set [1] (read-out: logD) came out at 3.21. In addition, the Activity was 2.22 fold in data set [2], “Non-Toxic” in the data set with 786-0, “Non-Toxic” in the data set with HeLa [5] and 1.21 fold with HeLa [7]. The lipophilicity (logP) in data set [3] (read-out: logP) came out at 3.21. The IC50 in [4] came to 166 nM.

The logD is the decadic logarithm of the distribution of all forms, ionised or not, between an organic phase and buffer at a given pH. As a reminder, the logP is the decadic logarithm of the partition coefficient of the neutral form, usually between octanol and water. Usually IC50 stands for the concentration needed to halve the response being measured. Low readings indicate greater potency, high ones weaker potency.
